Read-outs that look alike come from different tables or passages of the source.
What was measured:
[1] = test system: human colon carcinoma cell line CX-1; assay: Colony formation assay, human colon carcinoma CX-1; assay type: cell-based; details: for IC50: Homo sapiens, Colon carcinoma cell; for IC50 / CX-1 (IC50): 24 h treatment, colony count after 7 to 10 days; for Selectivity (ratio of IC50 for CV-1 and IC50 for CX-1): CV-1/CX-1
[2] = test system: human melanoma LOX cell line; assay: Colony formation assay, human melanoma LOX; assay type: cell-based; details: for IC50: Homo sapiens, LOX, 24 h, read-out: LOX (IC50); for Selectivity (CV-1 IC50 / LOX IC50): CV-1/LOX
Excerpt: (§1) The control received culture media only.

[3] = test system: normal monkey kidney epithelial cell line CV-1; assay: Colony formation assay, normal monkey kidney epithelial cells CV-1; details: for IC50: Primates, Epithelial cell;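 for all read-outs here: colonies visualized by crystal violet staining, incubation at 37 °C, IC50 relative to untreated wells given culture medium alone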
Protocol: Human colon carcinoma cell line CX-1 or normal monkey kidney epithelial cell line CV-1 was chosen as representatives of cancer cells and normal cells, respectively. […] CX-1 cells (2,000 cells/well) and CV-1 cells (1,000 cells/well) were plated in 24-well plastic culture plates. […] The control received culture media only. Cells were treated with compounds of General Formulas (1) to (6) at 37° C. for 24 hours. After rinsing with fresh culture medium three times, the cells were further incubated at 37° C. for 7 to 10 days. Cell colonies were fixed and stained with 2% crystal violet in 70% ethanol for 10 minutes and rinsed in water. […] The selectivity is defined as the ratio of IC50 for CV-1 and IC50 for CX-1.

[4] = test system: human breast carcinoma MCF-7 cell line; assay: Colony formation assay, human breast carcinoma MCF-7; assay type: cell-based; details: for Selectivity (CV-1 IC50 / MCF-7 IC50): CV-1/MCF-7
Excerpt: as §1
The Selectivity values, MCF-7 values and CV-1 values for compounds of the General Formulas (1) to (6) used in the present invention are shown in Table VI below.

[5] = test system: human pancreatic carcinoma CRL 1420 cell line; assay: Colony formation assay, human pancreatic carcinoma CRL 1420; assay type: cell-based; details: Table VII; for IC50: Homo sapiens, 24 h; for Selectivity (CV-1 IC50 / CRL-1420 IC50): CV-1/CRL-1420
Excerpt: as §1
The Selectivity values, CRL 1420 values and CV-1 values for compounds of the General Formulas (1) to (6) used in the present invention are shown in Table VII below.

[6] = test system: human bladder carcinoma EJ cell line; assay: Colony formation assay, human bladder carcinoma EJ; assay type: cell-based; details: for IC50: Homo sapiens, EJ, 24 h, read-out: EJ (IC50); for Selectivity (CV-1 IC50 / EJ IC50): CV-1/EJ
Excerpt: as §1

[7] = Table III, read-out: CX-1 (IC50)
[8] = read-out: CV-1 (IC50), Table III, 24 h treatment, colony count after 7 to 10 days
[9] = read-out: CV-1 (IC50), Table IV
[10] = read-out: CX-1 (IC50), Table III
[11] = read-out: CV-1 (IC50), Table VII
[12] = Table III, 24 h treatment, colony count after 7 to 10 days

CCn1c(=Cc2oc3c4ccccc4ccc3[n+]2CC)sc(=CC=C2N(C)c3ccccc3C2(C)C)c1=O [Compound 208]
IC50 [1, 7]: 0.01 µg/mL
Selectivity (ratio of IC50 for CV-1 and IC50 for CX-1) ([1]; Table III): 600
IC50 ([2]; Table V, 24 h treatment): 0.039 µg/mL
Selectivity (CV-1 IC50 / LOX IC50) ([2]; Table V): 154
IC50 [3, 8]: 6 µg/mL
IC50 ([3]; read-out: CV-1 (IC50), Table V): 6 µg/mL

CCN1C=CC=CC1=CC=c1sc(=Cc2sc3ccc4ccccc4c3[n+]2CC)n(CC)c1=O [Compound 278]
CX-1 (IC50) ([1]; Table III): 0.03 µg/mL
Selectivity (ratio of IC50 for CV-1 and IC50 for CX-1) ([1]; Table III): 333
IC50 ([2]; Table V, 24 h treatment): 0.035 µg/mL
Selectivity (CV-1 IC50 / LOX IC50) ([2]; Table V): 286
IC50 ([4]; Homo sapiens, MCF7, 24 h, read-out: MCF-7 (IC50)): 0.09 µg/mL
Selectivity (CV-1 IC50 / MCF-7 IC50) ([4]; Table VI): 111
IC50 ([5]; 24 h treatment): 0.04 µg/mL
Selectivity (CV-1 IC50 / CRL-1420 IC50) [5]: 250
IC50 ([3]; read-out: CV-1 (IC50)): 10 µg/mL

CCN1C(=CC=c2sc(=Cc3sc4c5ccccc5ccc4[n+]3CC)n(CC)c2=O)N(CC)c2cc(Cl)ccc21 [Compound 235]
IC50 [1, 7]: 0.05 µg/mL
Selectivity (ratio of IC50 for CV-1 and IC50 for CX-1) ([1]; Table III): > 400
IC50 [6]: 0.02 µg/mL
Selectivity (CV-1 IC50 / EJ IC50) ([6]; Table IV): 500
IC50 ([3]; read-out: CV-1 (IC50)): 10 µg/mL
IC50 [3, 8]: > 20 µg/mL

CCN1C(C)=CSC1=CC=c1sc(=Cc2sc3c4ccccc4ccc3[n+]2CC)n(CC)c1=O [Compound 97]
IC50 [1, 7]: 0.01 µg/mL
Selectivity (ratio of IC50 for CV-1 and IC50 for CX-1) ([1]; Table III): 200
IC50 ([6]; Table IV, 24 h treatment): 0.013 µg/mL
Selectivity (CV-1 IC50 / EJ IC50) ([6]; Table IV): 154
IC50 [2]: 0.015 µg/mL
Selectivity (CV-1 IC50 / LOX IC50) ([2]; Table V): 133
IC50 [3, 8]: 2 µg/mL
IC50 [3, 9]: 2 µg/mL
IC50 ([3]; read-out: CV-1 (IC50), Table V): 2 µg/mL

CCn1c(=Cc2sc3ccc(Cl)cc3[n+]2CC)sc(=CC=C2N(C)c3ccccc3C2(C)C)c1=O [Compound 214]
IC50 [1, 10]: 0.03 µg/mL
Selectivity (ratio of IC50 for CV-1 and IC50 for CX-1) ([1]; Table III): 267
IC50 ([6]; Table IV, 24 h treatment): 0.04 µg/mL
Selectivity (CV-1 IC50 / EJ IC50) ([6]; Table IV): 200
IC50 ([2]; Table V, 24 h treatment): 0.04 µg/mL
Selectivity (CV-1 IC50 / LOX IC50) ([2]; Table V): 200
IC50 ([5]; 24 h treatment): 0.04 µg/mL
Selectivity (CV-1 IC50 / CRL-1420 IC50) [5]: 200
IC50 [3, 9]: 8 µg/mL
IC50 ([3]; read-out: CV-1 (IC50), Table V): 8 µg/mL
IC50 [3, 11]: 8 µg/mL

CCN1CCSC1=CC=c1sc(=Cc2sc3ccc(C)cc3[n+]2CC)n(CC)c1=O [Compound 124]
IC50 [1, 10]: 0.03 µg/mL
Selectivity (ratio of IC50 for CV-1 and IC50 for CX-1) ([1]; Table III): 167
IC50 ([6]; Table IV, 24 h treatment): 0.05 µg/mL
Selectivity (CV-1 IC50 / EJ IC50) ([6]; Table IV): 100
IC50 ([2]; Table V, 24 h treatment): 0.04 µg/mL
Selectivity (CV-1 IC50 / LOX IC50) ([2]; Table V): 125
IC50 ([5]; 24 h treatment): 0.04 µg/mL
Selectivity (CV-1 IC50 / CRL-1420 IC50) [5]: 125
IC50 [3, 8]: 5 µg/mL
IC50 [3, 9]: 5 µg/mL
IC50 ([3]; read-out: CV-1 (IC50), Table V): 5 µg/mL
IC50 [3, 11]: 5 µg/mL

CCN1C(=CC=c2sc(=Cc3ccc4ccccc4[n+]3CC)n(CC)c2=O)Sc2ccc3ccccc3c21 [Compound 40]
IC50 [1, 7]: 0.02 µg/mL
Selectivity (ratio of IC50 for CV-1 and IC50 for CX-1) ([1]; Table III): 257
IC50 ([5]; 24 h treatment): 0.05 µg/mL
IC50 [3, 8]: 5.14 µg/mL
IC50 [3, 11]: 2 µg/mL

CCN1C(=CC=c2sc(=Cc3oc4ccc5ccccc5c4[n+]3CC)n(CC)c2=O)Sc2ccc3ccccc3c21 [Compound 70]
IC50 [1, 7]: 0.04 µg/mL
Selectivity (ratio of IC50 for CV-1 and IC50 for CX-1) ([1]; Table III): 250
IC50 ([3]; read-out: CV-1 (IC50)): 10 µg/mL

CCN1CCSC1=CC=c1sc(=Cc2sc3ccc(Cl)cc3[n+]2CC)n(CC)c1=O [Compound 123]
IC50 [1, 10]: 0.1 µg/mL
Selectivity (ratio of IC50 for CV-1 and IC50 for CX-1) ([1]; Table III): 200
IC50 ([6]; Table IV, 24 h treatment): 0.13 µg/mL
Selectivity (CV-1 IC50 / EJ IC50) ([6]; Table IV): 154
IC50 ([5]; 24 h treatment): 0.13 µg/mL
Selectivity (CV-1 IC50 / CRL-1420 IC50) [5]: 154
IC50 [3, 8]: 20 µg/mL
IC50 [3, 9]: 20 µg/mL
IC50 [3, 11]: 20 µg/mL

CCN1CCSC1=CC=c1sc(=Cc2sc3c4ccccc4ccc3[n+]2CC)n(CC)c1=O [Compound 138]
IC50 [1, 7]: 0.005 µg/mL
Selectivity (ratio of IC50 for CV-1 and IC50 for CX-1) ([1]; Table III): 160
CV-1 (IC50) [3, 12]: 0.8 µg/mL

CCN1C(=CC=c2sc(=CC3=[N+](CC)CCS3)n(CC)c2=O)C=Cc2ccccc21 [Compound 400]
Selectivity (ratio of IC50 for CV-1 and IC50 for CX-1) ([1]; Table III): > 250
IC50 [3, 8]: > 20 µg/mL

CCN1C(=CC=c2sc(=Cc3sc4c5ccccc5ccc4[n+]3CC)n(-c3ccccc3)c2=O)Sc2ccc3ccccc3c21 [Compound 68]
Selectivity (ratio of IC50 for CV-1 and IC50 for CX-1) ([1]; Table III): 100
IC50 [3, 8]: 5 µg/mL

CCN1CCSC1=CC=c1sc(=Cc2sc3cccc(OC)c3[n+]2CC)n(CC)c1=O [Compound 154]
IC50 [1, 7]: 0.04 µg/mL
Selectivity (ratio of IC50 for CV-1 and IC50 for CX-1) ([1]; Table III): 125
IC50 [3, 8]: 5 µg/mL

CCN1C(=CC=c2sc(=Cc3cc[n+](CC)c4ccccc34)n(CC)c2=O)C=Cc2cc(Cl)ccc21 [Compound 395]
CX-1 (IC50) ([1]; Table III): 0.2 µg/mL
Selectivity (ratio of IC50 for CV-1 and IC50 for CX-1) ([1]; Table III): 100
IC50 [3, 8]: 20 µg/mL

CCN1C(=CC=c2sc(=Cc3sc4ccccc4[n+]3CC)n(CC)c2=O)Sc2ccc3ccccc3c21 [Compound 178]
CX-1 (IC50) ([1]; Table III): 0.01 µg/mL
Selectivity (ratio of IC50 for CV-1 and IC50 for CX-1) ([1]; Table III): 200
MCF-7 (IC50) ([4]; Table VI, 24 h treatment): 0.0046 µg/mL
Selectivity (CV-1 IC50 / MCF-7 IC50) ([4]; Table VI): 435
CRL-1420 (IC50) ([5]; 24 h treatment): 0.013 µg/mL
Selectivity (CV-1 IC50 / CRL-1420 IC50) [5]: 154
CV-1 (IC50) [3, 12]: 2 µg/mL
CV-1 (IC50) ([3]; Table VI): 2 µg/mL
CV-1 (IC50) ([3]; Table VII): 2 µg/mL

CCOc1ccc2c(c1)C=CC(=CC=c1sc(=Cc3sc4c5ccccc5ccc4[n+]3CC)n(CC)c1=O)N2CC [Compound 252]
IC50 [1, 10]: 0.1 µg/mL
Selectivity (ratio of IC50 for CV-1 and IC50 for CX-1) ([1]; Table III): > 200
IC50 [3, 8]: > 20 µg/mL

CCn1c(=Cc2sc3cc(Cl)c(Cl)cc3[n+]2CC)sc(=CC=C2Sc3ccc4ccccc4c3N2C)c1=O [Compound 383]
IC50 [1, 10]: 0.1 µg/mL
Selectivity (ratio of IC50 for CV-1 and IC50 for CX-1) ([1]; Table III): 200
IC50 [3, 8]: 20 µg/mL

CCCCC[n+]1c(C=c2sc(=CC=C3SC=C(C)N3CC)c(=O)n2CC)sc2cc(OC)c(OC)cc21 [Compound 399]
IC50 [1, 10]: 0.1 µg/mL
Selectivity (ratio of IC50 for CV-1 and IC50 for CX-1) ([1]; Table III): 100
IC50 ([3]; read-out: CV-1 (IC50)): 10 µg/mL

CCN1CCSC1=CC=c1sc(=Cc2oc3cc(Cl)c(Cl)cc3[n+]2CC)n(CC)c1=O [Compound 391]
IC50 [1, 7]: 0.07 µg/mL
Selectivity (ratio of IC50 for CV-1 and IC50 for CX-1) ([1]; Table III): 114
IC50 ([3]; read-out: CV-1 (IC50)): 8 µg/mL

CCN1C=CC(=CC=c2sc(=Cc3sc4ccccc4[n+]3CC)n(CC)c2=O)C=C1 [Compound 317]
IC50 [1, 10]: 0.2 µg/mL
Selectivity (ratio of IC50 for CV-1 and IC50 for CX-1) ([1]; Table III): 100
IC50 [3, 8]: 20 µg/mL
